From ChEMBL document CHEMBL1201862, “PubChem BioAssay data set” (2004)
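The compound was tested at five concentrations on cells cultured in 96-well plates, with a 48-hour exposure period. Here, GI50 denotes the concentration required for 50% inhibition of growth.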 The source made the active and inactive calls. Cut-off read from the data, not from the text of the source: active = GI50 up to about 1.1 µM and inactive = higher.

What was measured:
Test in all cases: growth of human tumour cells (NCI), 48 h
786-0 = system: 786-0
CAKI-1 = system: CAKI-1
HL-60 = system: HL-60
HT-29 = system: HT-29
Hs-578T = system: Hs-578T
K562 = system: K562
KM12 = system: KM12
NCI-H226 = system: NCI-H226
NCI/ADR-RES = system: NCI/ADR-RES
OVCAR-8 = system: OVCAR-8
RPMI-8226 = system: RPMI-8226
SF-268 = system: SF-268
SK-MEL-28 = system: SK-MEL-28
SK-MEL-5 = system: SK-MEL-5
SN12C = system: SN12C
SNB-75 = system: SNB-75
UACC-62 = system: UACC-62
UO-31 = system: UO-31
EKVX = system: EKVX

Measured: GI50

NNC(=O)c1cc(Cl)ccc1NC(=O)C12CC3CC(CC(C3)C1)C2
inactive: 786-0 21.4 µM | CAKI-1 24.2 µM | HL-60 23 µM | HT-29 20.2 µM | Hs-578T 31.8 µM | K562 29.2 µM | KM12 30.1 µM | NCI-H226 > 100 µM | NCI/ADR-RES 34.8 µM | OVCAR-8 30.4 µM | RPMI-8226 24 µM | SF-268 20.2 µM | SK-MEL-28 29.9 µM | SK-MEL-5 25.9 µM | SN12C 20.5 µM | SNB-75 42.9 µM | UACC-62 24.1 µM | UO-31 17.1 µM

C=C(C)[C@@H]1CCC2=C[C@H](OC2=O)[C@@]2(C)C[C@@H]2C(=O)/C=C(/C)C(=O)[C@H]1OC(C)=O
inactive: 786-0 11.4 µM | CAKI-1 14.2 µM | EKVX 21.2 µM | HL-60 58.6 µM | HT-29 11.1 µM | Hs-578T 16.9 µM | KM12 17.7 µM | NCI-H226 23.9 µM | NCI/ADR-RES 26.5 µM | OVCAR-8 15.1 µM | RPMI-8226 4.12 µM | SF-268 28.1 µM | SK-MEL-28 14.8 µM | SK-MEL-5 16.2 µM | SN12C 21.5 µM | SNB-75 38.9 µM | UACC-62 24.2 µM | UO-31 10.9 µM

CN(/N=C/c1ccc(Cl)c(Cl)c1)C1=NCCCCN1
inactive: 786-0 20.6 µM | CAKI-1 23.9 µM | EKVX > 100 µM | HL-60 19.3 µM | HT-29 29.2 µM | Hs-578T 61 µM | K562 21.4 µM | KM12 19.6 µM | NCI-H226 2.45 µM | NCI/ADR-RES 66.8 µM | OVCAR-8 72.3 µM | RPMI-8226 27.9 µM | SF-268 51.2 µM | SK-MEL-5 14.6 µM | SN12C 42 µM | SNB-75 50.2 µM | UACC-62 23 µM

C[N+](C)(C)CCN(Cc1cccs1)c1ccccn1
inactive: 786-0 > 100 µM | CAKI-1 > 100 µM | HL-60 > 100 µM | Hs-578T 74.5 µM | K562 64.3 µM | KM12 > 100 µM | NCI-H226 > 100 µM | NCI/ADR-RES > 100 µM | OVCAR-8 > 100 µM | RPMI-8226 > 100 µM | SF-268 86.7 µM | SK-MEL-28 > 100 µM | SK-MEL-5 > 100 µM | SN12C 90.4 µM | SNB-75 59.8 µM | UACC-62 > 100 µM | UO-31 > 100 µM

C[C@@H](c1ccccc1)C(CC#N)[C@H]1CCC[C@]1(O)C#Cc1ccc2c(c1)OCO2 (stereo not given in full)
inactive: 786-0 17.5 µM | CAKI-1 15.8 µM | EKVX 19.5 µM | HL-60 18.3 µM | HT-29 15.2 µM | Hs-578T 20.8 µM | K562 18.1 µM | KM12 16.7 µM | NCI-H226 17.5 µM | NCI/ADR-RES 16 µM | OVCAR-8 16.9 µM | RPMI-8226 23.2 µM | SF-268 19.6 µM | SK-MEL-28 16.1 µM | SK-MEL-5 18.6 µM | SNB-75 16.5 µM | UACC-62 16.6 µM | UO-31 14.4 µM

O=C(Nc1ccc(Cl)cc1)c1cc(S(=O)(=O)N2CCNNC2=O)c(S)cc1Cl
inactive: 786-0 > 100 µM | CAKI-1 > 100 µM | EKVX > 100 µM | HL-60 > 100 µM | Hs-578T > 100 µM | K562 > 100 µM | KM12 > 100 µM | NCI-H226 > 100 µM | NCI/ADR-RES > 100 µM | OVCAR-8 > 100 µM | RPMI-8226 55.1 µM | SF-268 > 100 µM | SK-MEL-28 > 100 µM | SK-MEL-5 > 100 µM | SN12C > 100 µM | SNB-75 > 100 µM | UACC-62 > 100 µM | UO-31 > 100 µM

CCOC(=O)C(CS)NC(=O)CCCCCCCC(=O)NC(CS)C(=O)OCC (stereo not given)
inactive: 786-0 > 100 µM | CAKI-1 > 100 µM | EKVX > 100 µM | HL-60 25.8 µM | HT-29 > 100 µM | Hs-578T > 100 µM | K562 > 100 µM | KM12 > 100 µM | NCI-H226 > 100 µM | NCI/ADR-RES > 100 µM | OVCAR-8 > 100 µM | RPMI-8226 > 100 µM | SK-MEL-28 > 100 µM | SK-MEL-5 > 100 µM | SN12C > 100 µM | SNB-75 > 100 µM | UACC-62 > 100 µM | UO-31 > 100 µM

CCCC[C@@H](C)/C=C1\CN2CCC[C@H]2[C@@](C)(O)[C@@H]1O
inactive: 786-0 45.2 µM | CAKI-1 4.2 µM | EKVX > 100 µM | HL-60 1.92 µM | HT-29 43.2 µM | Hs-578T > 100 µM | K562 > 100 µM | KM12 > 100 µM | NCI-H226 > 100 µM | NCI/ADR-RES 58.9 µM | OVCAR-8 65.5 µM | RPMI-8226 > 100 µM | SF-268 44.7 µM | SK-MEL-28 > 100 µM | SK-MEL-5 79.1 µM | SNB-75 20.2 µM | UACC-62 38.7 µM | UO-31 50.7 µM

[O-][S+](C(c1ccccc1)=P(c1ccccc1)(c1ccccc1)c1ccccc1)c1ccc(Cl)cc1 (stereo not given)
inactive: 786-0 30.8 µM | CAKI-1 60.5 µM | EKVX 27.3 µM | HL-60 11.5 µM | HT-29 21.3 µM | Hs-578T 19.8 µM | K562 14.2 µM | KM12 14.2 µM | NCI-H226 55.7 µM | NCI/ADR-RES 66.7 µM | OVCAR-8 28.1 µM | RPMI-8226 6.98 µM | SF-268 20.4 µM | SK-MEL-28 22 µM | SK-MEL-5 12.1 µM | SNB-75 60.4 µM | UO-31 46.1 µM

CC(NNC(=O)c1cc[n+]([BH2-]C#N)cc1)c1ccccc1F (stereo not given)
inactive: 786-0 > 100 µM | CAKI-1 > 100 µM | EKVX > 100 µM | HL-60 > 100 µM | Hs-578T > 100 µM | K562 > 100 µM | KM12 > 100 µM | NCI-H226 > 100 µM | NCI/ADR-RES > 100 µM | OVCAR-8 > 100 µM | RPMI-8226 > 100 µM | SF-268 > 100 µM | SK-MEL-28 > 100 µM | SK-MEL-5 > 100 µM | SN12C > 100 µM | SNB-75 > 100 µM | UACC-62 > 100 µM | UO-31 > 100 µM

CON(C)C(=O)C(C)NC(=O)OC(C)(C)C (stereo not given)
inactive: 786-0 > 100 µM | EKVX > 100 µM | HL-60 > 100 µM | HT-29 > 100 µM | Hs-578T > 100 µM | K562 > 100 µM | KM12 > 100 µM | NCI-H226 > 100 µM | NCI/ADR-RES > 100 µM | OVCAR-8 > 100 µM | RPMI-8226 > 100 µM | SF-268 > 100 µM | SK-MEL-28 > 100 µM | SK-MEL-5 > 100 µM | SN12C > 100 µM | SNB-75 > 100 µM | UACC-62 > 100 µM | UO-31 > 100 µM
